Data reported in EP2878592B1, “SYNTHESIS OF AMIDE DERIVATIVES OF SOME NONSTEROIDAL ANTIINFLAMMATORY DRUGS AS POTENTIAL PRO-DRUGS” (Kücükgüzel, Ilkay, priority 2013, dated 2015).

Columns and labels:
[1] = compared with the ibuprofen molecule; cited from earlier work
[2] = compared with ibuprofen, equimolar doses; cited from earlier work
[3] = Partition coefficient (log P) study, chloroform / buffer, HPLC; format: physicochemical; conditions: 37°C, 24 hours
Description: 20 mg of amide compound is dissolved in 20 ml of chloroform. 10 mL of this mixture is drawn out (divided into two). This 10 ml of mixture is added to 20 ml with pH 1.2 buffer solution. Likewise the other 10 ml of mixture is added to 20 ml with pH 6.8 buffer solution. The tubes placed in a 37°C incubator are mixed for 24 hours.
After 24 hours the chloroform phase was removed and transferred to separate tubes. The chloroform is evaporated. After evaporation of chloroform, 10 mL of ACN is added and thoroughly mixed. 0.1 ml of the sample is taken out of the mixture with ACN and this sample is added to 10 ml with the mobile phase (S1, S2, S3) (Cn=1ug/ml)
The standard samples used in this study were prepared according to the method of preparation of standard samples given above.
• HPLC Column Type: ACE C18 reverse phase. • Flow Rate: 1 ml/min. • Wavelength: 210 nm

[4] = pH 1.2 buffer solution / chloroform
[5] = pH 6.8 buffer solution / chloroform

Row | Compound | gastrointestinal and acute toxicities [1] | effect in relieving edema and in lowering fever [2] | Log P (Experimental result) [3, 4] | Log P (Experimental result) [3, 5]
1 | COc1ccccc1OC(=O)C(C)c1ccc(CC(C)C)cc1 (centres unmarked) [guiacol ester of ibuprofen] | much lower | same effect |  | 
2 | CC(C)Cc1ccc(C(C)C(=O)NC(CO)(CO)CO)cc1 (centres unmarked) [Compound 2b, N-[1,3-dihydroxy-2-(hydroxmethyl)propan-2-yl]-2-(4-isobutylphenyl)propanamide] |  |  | -0.12 | -0.41
3 | CC(C(=O)NC(CO)(CO)CO)c1ccc(-c2ccccc2)c(F)c1 (centres unmarked) [Compound 3b, N-[1,3-Dihydroxy-2-(hydroxymethyl)propan-2-yl]-2-(2-fluorobiphenyl-4-yl)propanamide] |  |  | -0.14 | -0.95
4 | C[C@H](C(=O)NC(CO)(CO)CO)c1cccc(C(=O)c2ccccc2)c1 [Compound 1b, (+)-(2S)-2-(3-Benzoylphenyl)-N-[1,3-dihydroxy-2-(hydroxymethyl)propan-2-yl]propanamide] |  |  | -0.05 | +0.05
